Tests used:
recombinant GST-GK = biological target: T1, recombinant GST-GK (Homo sapiens, UniProt P35557); test: in vitro assay measuring the activation of recombinant GST-GK; format: biochemical; conditions: thioNADH-coupled assay read at 405 nm
T1 sequence (P35557 1-465): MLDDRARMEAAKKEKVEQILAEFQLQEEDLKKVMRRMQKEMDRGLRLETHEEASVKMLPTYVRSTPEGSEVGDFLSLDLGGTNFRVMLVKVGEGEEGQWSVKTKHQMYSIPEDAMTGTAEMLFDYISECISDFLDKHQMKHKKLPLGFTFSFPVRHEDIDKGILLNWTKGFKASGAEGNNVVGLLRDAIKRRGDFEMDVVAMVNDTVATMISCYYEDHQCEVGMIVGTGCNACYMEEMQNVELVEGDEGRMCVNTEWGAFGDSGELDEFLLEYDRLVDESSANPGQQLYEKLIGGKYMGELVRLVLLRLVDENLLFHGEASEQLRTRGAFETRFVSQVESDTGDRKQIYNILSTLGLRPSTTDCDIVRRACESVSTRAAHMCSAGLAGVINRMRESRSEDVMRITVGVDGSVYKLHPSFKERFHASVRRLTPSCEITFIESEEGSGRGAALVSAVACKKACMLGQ
From the text: The glucokinase activation in vitro may be determined by measuring the activation of recombinant GST-GK by a compound of the present invention in the absence or the presence of GKRP, a 68,000 Da protein inhibitor of GK. In these assays, formation of glucose-6-phosphate is coupled directly to the formation of thioNADH. GST-GK catalyzes the reaction of glucose and Mg-ATP to produce glucose-6-phosphate and ADP. Glucose-6-phosphate dehydrogenase (G6PDH) reduces thionicotinamide (thioNAD) to thioNADH. The assay measures the formation of […] at 405 nM.
The basic GK assay components are as follows: 25 mM HEPES (pH 7.1), 25 mM KCl, 2.5 mM MgCl2, 1 mM ATP (Sigma A-5394), 1 mM DTT, 1 mM thioNAD (Sigma T-7375), 80 units/mL G6PDH (Sigma G-5885), 10 mM glucose and […] GST-GK (110 nM). For assessing reversal of GK inhibition by GKRP, 20 μM Fructose-1-phosphate ([…]) and 25 μg/mL of recombinant GKRP (370 nM) are added to these assay components. F-1-P at 1 μM is used as a control in the GK/GKRP assay. F-1-P reverses inhibition of GST-GK by GKRP.
The assay is done in standard, 96-well, round-bottom plates and the total assay volume is 25 μL. […] The plates are then delivered via the Zymark XP arm to a Thermomax plate reader and read kinetically over three min at 405 nM at RT. Units are expressed as milli-optical density per minute (mOD/min).

| melting point [°C] | EC50 (recombinant GST-GK) [nM] | Structure (SMILES) |
| --- | --- | --- |
| 169 to 172 |  | COc1ccc2nc(NC(=O)C(CC3CCCC3)c3ccc(S(=O)(=O)CCc4ccccc4)cc3)sc2n1 (stereo not shown) [Example 3, 3-Cyclopentyl-N-(5-methoxy-thiazolo[5,4-b]pyridin-2-yl)-2-[4-(2-phenyl-ethanesulfonyl)-phenyl]-propionamide] |
| 67 to 71 |  | COc1ccc2nc(NC(=O)C(CC3CCCC3)c3ccc(S(=O)(=O)CC(C)=O)cc3)sc2n1 (stereo not shown) [Example 2, 3-Cyclopentyl-N-(5-methoxy-thiazolo[5,4-b]pyridin-2-yl)-2-[4-(2-oxo-propane-1-sulfonyl)-phenyl]-propionamide] |
| 158 to 160 | ~106 | CCOCS(=O)(=O)c1ccc(C(CC2CCCC2)C(=O)Nc2nc3ccc(OC)nc3s2)cc1 (stereo not shown) [Example 1, 3-Cyclopentyl-2-(4-ethoxymethanesulfonyl-phenyl)-N-(5-methoxy-thiazolo[5,4-b]pyridin-2-yl)-propionamide] |
